Laboratory results from ChEMBL document CHEMBL3991601, “The target landscape of clinical kinase drugs” (Science, 2017).
The source made the active and inactive calls.

What was measured:
Adenosine kinase = Adenosine kinase (Homo sapiens, UniProt P55263)
[1] = target: T1, Adenine phosphoribosyltransferase (Homo sapiens, UniProt P07741)
T1 sequence (P07741 whole entry): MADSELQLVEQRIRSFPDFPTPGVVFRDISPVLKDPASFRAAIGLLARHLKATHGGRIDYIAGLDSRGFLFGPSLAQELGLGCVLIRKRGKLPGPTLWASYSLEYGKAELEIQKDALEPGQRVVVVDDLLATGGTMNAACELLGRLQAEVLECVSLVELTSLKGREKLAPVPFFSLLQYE

[2] = target: BMP-2-inducible protein kinase (Homo sapiens, UniProt Q9NSY1)
[3] = target: Serine/threonine-protein kinase MRCK gamma (Homo sapiens, UniProt Q6DT37)
[4] = target: T2, Electron transfer flavoprotein subunit beta (Homo sapiens, UniProt P38117)
T2 sequence (P38117 whole entry): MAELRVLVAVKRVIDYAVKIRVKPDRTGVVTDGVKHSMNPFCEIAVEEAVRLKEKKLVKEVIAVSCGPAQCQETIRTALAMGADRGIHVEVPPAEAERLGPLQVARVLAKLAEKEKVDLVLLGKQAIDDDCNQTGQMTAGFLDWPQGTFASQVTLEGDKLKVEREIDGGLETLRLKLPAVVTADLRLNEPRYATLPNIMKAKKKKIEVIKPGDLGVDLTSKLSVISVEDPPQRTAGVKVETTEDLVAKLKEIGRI

[5] = target: Tyrosine-protein kinase Fer (Homo sapiens, UniProt P16591)
[6] = target: Tyrosine-protein kinase Fyn (Homo sapiens, UniProt P06241)
LIM domain kinase 1 = LIM domain kinase 1 (Homo sapiens, UniProt P53667)
[7] = target: T3, Mitogen-activated protein kinase kinase kinase kinase 3 (Homo sapiens, UniProt Q8IVH8)
T3 sequence (Q8IVH8 whole entry): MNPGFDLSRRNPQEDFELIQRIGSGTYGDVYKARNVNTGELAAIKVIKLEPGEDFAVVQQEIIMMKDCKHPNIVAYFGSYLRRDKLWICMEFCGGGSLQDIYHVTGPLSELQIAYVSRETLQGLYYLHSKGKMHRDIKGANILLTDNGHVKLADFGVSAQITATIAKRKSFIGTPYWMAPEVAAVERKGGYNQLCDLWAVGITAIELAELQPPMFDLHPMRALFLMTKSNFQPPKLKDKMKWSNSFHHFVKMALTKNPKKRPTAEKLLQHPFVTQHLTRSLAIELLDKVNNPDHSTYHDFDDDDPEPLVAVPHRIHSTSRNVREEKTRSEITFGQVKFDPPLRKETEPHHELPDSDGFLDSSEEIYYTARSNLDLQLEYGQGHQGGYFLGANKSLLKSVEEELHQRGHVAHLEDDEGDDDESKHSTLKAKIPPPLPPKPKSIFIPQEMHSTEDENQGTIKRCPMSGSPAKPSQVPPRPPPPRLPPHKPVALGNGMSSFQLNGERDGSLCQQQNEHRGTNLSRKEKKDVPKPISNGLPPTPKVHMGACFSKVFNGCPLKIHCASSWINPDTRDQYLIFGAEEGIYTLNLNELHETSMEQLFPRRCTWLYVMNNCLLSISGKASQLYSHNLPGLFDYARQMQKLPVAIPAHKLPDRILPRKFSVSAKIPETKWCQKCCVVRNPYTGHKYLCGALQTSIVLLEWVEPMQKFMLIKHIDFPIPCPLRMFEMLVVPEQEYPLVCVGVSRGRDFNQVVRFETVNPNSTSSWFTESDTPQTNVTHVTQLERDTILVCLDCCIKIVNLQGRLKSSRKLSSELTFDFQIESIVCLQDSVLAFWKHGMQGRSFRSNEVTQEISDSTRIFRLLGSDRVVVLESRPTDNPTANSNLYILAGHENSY

[8] = target: Mitogen-activated protein kinase 11 (Homo sapiens, UniProt Q15759)
[9] = target: Mitogen-activated protein kinase 8 (Homo sapiens, UniProt P45983)
[10] = target: T4, NUAK family SNF1-like kinase 2 (Homo sapiens, UniProt Q9H093)
T4 sequence (Q9H093 whole entry): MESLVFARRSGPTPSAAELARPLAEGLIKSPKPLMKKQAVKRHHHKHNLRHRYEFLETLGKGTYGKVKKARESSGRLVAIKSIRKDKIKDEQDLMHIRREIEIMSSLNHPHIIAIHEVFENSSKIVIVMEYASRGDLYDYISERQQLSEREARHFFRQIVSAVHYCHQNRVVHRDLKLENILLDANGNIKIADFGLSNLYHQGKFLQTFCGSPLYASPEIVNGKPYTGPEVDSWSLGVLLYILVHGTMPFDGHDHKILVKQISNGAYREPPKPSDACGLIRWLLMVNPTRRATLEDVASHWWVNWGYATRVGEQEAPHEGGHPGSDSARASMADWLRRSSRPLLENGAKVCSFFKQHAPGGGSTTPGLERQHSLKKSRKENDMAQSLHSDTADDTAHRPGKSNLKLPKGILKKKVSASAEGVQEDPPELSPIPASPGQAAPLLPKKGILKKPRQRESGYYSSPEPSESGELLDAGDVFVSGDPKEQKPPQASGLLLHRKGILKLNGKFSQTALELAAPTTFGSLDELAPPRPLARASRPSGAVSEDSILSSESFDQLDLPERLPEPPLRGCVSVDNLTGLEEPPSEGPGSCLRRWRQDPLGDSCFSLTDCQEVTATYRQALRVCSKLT

[11] = target: Ribosomal protein S6 kinase alpha-1 (Homo sapiens, UniProt Q15418)
[12] = target: Serine/threonine-protein kinase SIK3 (Homo sapiens, UniProt Q9Y2K2)
ADP/ATP translocase 3 = target: T5, ADP/ATP translocase 3 (Homo sapiens, UniProt P12236)
T5 sequence (P12236 whole entry): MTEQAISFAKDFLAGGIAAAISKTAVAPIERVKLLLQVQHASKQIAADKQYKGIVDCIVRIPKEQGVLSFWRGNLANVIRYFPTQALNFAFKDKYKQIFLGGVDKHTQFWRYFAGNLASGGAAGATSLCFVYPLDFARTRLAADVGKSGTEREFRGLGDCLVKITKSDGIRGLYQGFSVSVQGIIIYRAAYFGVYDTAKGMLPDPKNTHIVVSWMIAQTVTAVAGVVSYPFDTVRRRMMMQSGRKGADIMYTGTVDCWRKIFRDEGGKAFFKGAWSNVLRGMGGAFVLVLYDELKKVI

[13] = target: Inosine-5'-monophosphate dehydrogenase 2 (Homo sapiens, UniProt P12268)
Also: in the data inactive means no Kd found up to 30 µM.

Tyrosine-protein kinase Fer, sequence (P16591 whole entry): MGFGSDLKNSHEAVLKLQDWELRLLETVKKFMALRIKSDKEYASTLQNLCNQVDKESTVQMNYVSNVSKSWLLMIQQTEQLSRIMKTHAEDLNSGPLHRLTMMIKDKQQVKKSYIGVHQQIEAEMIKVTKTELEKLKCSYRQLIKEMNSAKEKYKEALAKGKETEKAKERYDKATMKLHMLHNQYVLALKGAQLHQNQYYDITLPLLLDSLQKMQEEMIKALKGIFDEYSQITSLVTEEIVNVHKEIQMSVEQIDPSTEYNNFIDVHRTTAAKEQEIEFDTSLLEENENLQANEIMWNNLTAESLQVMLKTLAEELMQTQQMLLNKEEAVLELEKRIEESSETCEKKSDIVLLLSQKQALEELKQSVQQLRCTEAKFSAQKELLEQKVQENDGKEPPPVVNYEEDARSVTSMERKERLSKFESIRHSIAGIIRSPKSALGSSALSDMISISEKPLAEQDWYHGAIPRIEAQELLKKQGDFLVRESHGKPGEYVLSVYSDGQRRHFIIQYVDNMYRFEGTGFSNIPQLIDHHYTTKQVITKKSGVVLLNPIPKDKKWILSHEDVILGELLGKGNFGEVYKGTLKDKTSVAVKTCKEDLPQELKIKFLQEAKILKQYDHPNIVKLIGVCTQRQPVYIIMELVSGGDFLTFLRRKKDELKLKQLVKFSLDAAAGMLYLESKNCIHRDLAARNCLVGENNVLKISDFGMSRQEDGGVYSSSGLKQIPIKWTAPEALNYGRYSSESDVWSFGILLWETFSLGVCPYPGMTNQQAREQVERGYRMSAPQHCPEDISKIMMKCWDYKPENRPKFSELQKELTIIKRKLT
Mitogen-activated protein kinase 8, sequence (P45983 whole entry): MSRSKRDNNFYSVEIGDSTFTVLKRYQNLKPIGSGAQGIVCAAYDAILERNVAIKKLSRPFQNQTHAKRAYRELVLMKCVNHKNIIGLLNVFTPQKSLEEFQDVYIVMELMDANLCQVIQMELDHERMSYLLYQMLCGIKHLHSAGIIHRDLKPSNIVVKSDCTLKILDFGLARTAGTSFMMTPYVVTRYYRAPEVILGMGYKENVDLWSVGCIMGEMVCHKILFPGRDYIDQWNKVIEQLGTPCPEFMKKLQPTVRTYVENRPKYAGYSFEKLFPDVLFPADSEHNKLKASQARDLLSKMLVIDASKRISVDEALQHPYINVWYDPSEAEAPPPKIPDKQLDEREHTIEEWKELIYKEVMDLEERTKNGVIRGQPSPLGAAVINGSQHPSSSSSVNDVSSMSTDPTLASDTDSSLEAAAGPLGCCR
Tyrosine-protein kinase Fyn, sequence (P06241 whole entry, the tested form may be a part): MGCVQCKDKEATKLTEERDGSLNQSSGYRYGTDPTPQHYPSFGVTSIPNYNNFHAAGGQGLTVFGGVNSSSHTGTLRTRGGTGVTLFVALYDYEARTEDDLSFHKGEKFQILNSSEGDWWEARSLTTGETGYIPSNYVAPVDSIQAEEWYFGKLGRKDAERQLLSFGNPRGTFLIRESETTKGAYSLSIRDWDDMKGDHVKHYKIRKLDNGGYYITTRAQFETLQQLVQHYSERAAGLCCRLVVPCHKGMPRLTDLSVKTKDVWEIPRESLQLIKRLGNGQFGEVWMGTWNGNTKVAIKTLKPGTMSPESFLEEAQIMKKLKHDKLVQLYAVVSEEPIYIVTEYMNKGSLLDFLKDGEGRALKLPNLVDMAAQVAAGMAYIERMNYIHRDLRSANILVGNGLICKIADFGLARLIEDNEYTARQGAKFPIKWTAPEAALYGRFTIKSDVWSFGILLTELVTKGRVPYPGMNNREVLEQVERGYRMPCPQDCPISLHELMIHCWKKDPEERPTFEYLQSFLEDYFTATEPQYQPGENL
Adenosine kinase, sequence (P55263 whole entry): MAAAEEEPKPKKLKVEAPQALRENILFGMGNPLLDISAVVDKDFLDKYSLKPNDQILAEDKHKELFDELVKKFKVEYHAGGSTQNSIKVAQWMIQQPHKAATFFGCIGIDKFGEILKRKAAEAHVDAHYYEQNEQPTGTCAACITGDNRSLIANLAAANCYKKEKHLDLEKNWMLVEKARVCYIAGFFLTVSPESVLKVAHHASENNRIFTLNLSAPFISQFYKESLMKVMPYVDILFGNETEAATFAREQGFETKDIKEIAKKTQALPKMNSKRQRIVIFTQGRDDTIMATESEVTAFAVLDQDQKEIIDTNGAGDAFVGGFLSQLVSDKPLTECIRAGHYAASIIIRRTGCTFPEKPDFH
Mitogen-activated protein kinase 11, sequence (Q15759 whole entry): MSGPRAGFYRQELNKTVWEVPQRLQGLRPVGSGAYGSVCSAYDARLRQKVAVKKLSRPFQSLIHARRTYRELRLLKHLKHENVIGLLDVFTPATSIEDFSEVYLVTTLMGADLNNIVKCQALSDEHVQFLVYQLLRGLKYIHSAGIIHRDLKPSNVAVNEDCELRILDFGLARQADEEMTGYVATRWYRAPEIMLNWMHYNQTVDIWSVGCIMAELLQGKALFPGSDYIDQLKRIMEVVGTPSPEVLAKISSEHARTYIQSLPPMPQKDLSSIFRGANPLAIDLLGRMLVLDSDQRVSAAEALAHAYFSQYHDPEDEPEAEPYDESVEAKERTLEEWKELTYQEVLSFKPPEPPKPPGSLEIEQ
Serine/threonine-protein kinase SIK3, sequence (Q9Y2K2 whole entry): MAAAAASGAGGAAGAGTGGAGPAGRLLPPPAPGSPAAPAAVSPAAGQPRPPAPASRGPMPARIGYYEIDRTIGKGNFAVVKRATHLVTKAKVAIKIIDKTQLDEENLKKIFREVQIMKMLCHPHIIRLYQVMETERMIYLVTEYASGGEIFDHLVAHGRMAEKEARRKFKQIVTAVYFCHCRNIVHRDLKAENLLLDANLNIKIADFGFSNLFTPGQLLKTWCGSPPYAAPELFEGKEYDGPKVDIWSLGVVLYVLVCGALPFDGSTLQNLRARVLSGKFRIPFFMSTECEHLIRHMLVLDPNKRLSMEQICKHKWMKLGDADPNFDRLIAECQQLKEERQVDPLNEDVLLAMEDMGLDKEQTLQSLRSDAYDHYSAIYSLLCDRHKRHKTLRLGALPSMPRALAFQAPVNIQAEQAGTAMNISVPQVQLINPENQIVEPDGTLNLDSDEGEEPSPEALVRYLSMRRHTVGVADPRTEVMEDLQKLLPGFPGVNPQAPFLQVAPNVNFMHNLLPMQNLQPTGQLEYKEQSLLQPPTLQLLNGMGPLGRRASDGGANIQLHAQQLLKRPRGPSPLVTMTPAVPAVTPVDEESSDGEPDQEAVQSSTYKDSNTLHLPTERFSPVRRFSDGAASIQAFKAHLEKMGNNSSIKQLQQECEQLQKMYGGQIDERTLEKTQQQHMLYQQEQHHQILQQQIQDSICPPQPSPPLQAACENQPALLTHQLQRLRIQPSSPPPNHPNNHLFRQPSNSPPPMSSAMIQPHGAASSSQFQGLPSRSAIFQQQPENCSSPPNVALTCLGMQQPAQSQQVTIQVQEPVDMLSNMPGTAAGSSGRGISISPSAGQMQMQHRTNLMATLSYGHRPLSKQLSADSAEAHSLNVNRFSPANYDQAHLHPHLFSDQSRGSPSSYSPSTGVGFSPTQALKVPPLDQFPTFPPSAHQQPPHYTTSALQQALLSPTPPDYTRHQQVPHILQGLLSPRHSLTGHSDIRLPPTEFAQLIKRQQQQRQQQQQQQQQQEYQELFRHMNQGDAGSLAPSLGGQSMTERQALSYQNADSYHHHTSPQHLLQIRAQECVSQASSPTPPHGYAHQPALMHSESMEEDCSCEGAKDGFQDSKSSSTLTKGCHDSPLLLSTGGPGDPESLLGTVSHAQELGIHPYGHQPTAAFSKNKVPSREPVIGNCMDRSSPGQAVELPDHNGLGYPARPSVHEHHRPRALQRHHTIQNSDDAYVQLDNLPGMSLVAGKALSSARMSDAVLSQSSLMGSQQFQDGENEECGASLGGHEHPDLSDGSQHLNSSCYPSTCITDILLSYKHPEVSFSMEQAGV
BMP-2-inducible protein kinase, sequence (Q9NSY1 whole entry): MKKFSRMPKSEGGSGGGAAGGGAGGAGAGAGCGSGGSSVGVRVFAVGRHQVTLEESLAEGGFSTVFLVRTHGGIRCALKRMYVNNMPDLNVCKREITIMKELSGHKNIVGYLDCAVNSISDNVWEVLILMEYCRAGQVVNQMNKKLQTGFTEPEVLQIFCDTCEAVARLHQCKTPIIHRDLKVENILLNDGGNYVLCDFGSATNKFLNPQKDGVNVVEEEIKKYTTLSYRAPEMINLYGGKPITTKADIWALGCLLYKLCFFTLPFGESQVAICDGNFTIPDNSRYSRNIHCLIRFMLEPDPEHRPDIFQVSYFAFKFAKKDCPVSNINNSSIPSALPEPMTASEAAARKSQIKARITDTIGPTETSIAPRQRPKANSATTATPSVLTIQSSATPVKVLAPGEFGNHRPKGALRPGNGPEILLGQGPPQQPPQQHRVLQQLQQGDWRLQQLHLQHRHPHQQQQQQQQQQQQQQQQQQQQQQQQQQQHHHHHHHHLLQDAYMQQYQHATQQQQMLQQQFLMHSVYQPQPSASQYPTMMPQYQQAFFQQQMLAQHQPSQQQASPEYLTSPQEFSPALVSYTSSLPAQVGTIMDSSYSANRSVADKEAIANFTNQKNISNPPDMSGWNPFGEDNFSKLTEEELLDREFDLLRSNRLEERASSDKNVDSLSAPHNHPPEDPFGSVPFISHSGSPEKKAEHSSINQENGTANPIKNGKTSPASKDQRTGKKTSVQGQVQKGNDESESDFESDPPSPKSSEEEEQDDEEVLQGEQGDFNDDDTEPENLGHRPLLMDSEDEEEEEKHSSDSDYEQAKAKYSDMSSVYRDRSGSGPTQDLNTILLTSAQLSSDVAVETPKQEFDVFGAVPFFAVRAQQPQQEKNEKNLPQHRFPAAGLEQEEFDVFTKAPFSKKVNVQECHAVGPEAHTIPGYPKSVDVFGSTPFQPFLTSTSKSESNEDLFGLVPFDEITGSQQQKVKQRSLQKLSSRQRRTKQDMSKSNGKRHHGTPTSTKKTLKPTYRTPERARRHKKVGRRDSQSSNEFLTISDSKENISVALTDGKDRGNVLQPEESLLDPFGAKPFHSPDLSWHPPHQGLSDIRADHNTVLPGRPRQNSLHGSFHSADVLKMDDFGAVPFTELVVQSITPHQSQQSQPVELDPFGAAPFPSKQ

Kd (ADP/ATP translocase 3) | Kd [13] | Compound | Kd (Adenosine kinase) | Kd [1] | Kd [2] | Kd [3] | Kd [4] | Kd [5] | Kd [6] | Kd (LIM domain kinase 1) | Kd [7] | Kd [8] | Kd [9] | Kd [10] | Kd [11] | Kd [12]
> 30 µM (inactive) | > 30 µM (inactive) | Cc1cc(Nc2nc(N[C@@H](C)c3ncc(F)cn3)ncc2Cl)n[nH]1 [AZD-1480] | > 30 µM (inactive) | > 30 µM (inactive) | > 30 µM (inactive) | > 30 µM (inactive) | > 30 µM (inactive) | 0.517 µM (active) | > 30 µM (inactive) | > 30 µM (inactive) | > 30 µM (inactive) | > 30 µM (inactive) | > 30 µM (inactive) | > 30 µM (inactive) | > 30 µM (inactive) | > 30 µM (inactive)
> 30 µM (inactive) | > 30 µM (inactive) | COc1cc2ncnc(Nc3ccc(O)cc3)c2cc1OC [WHI-P131] | > 30 µM (inactive) | > 30 µM (inactive) | > 30 µM (inactive) | > 30 µM (inactive) | > 30 µM (inactive) | > 30 µM (inactive) | > 30 µM (inactive) | > 30 µM (inactive) | > 30 µM (inactive) | > 30 µM (inactive) | > 30 µM (inactive) | > 30 µM (inactive) | > 30 µM (inactive) | > 30 µM (inactive)
> 30 µM (inactive) | > 30 µM (inactive) | Cn1c(=O)c(F)c(Nc2ccc(I)cc2F)c2c(=O)n(C[C@@H](O)CO)cnc21 [TAK-733] | > 30 µM (inactive) | > 30 µM (inactive) | > 30 µM (inactive) | > 30 µM (inactive) | > 30 µM (inactive) | > 30 µM (inactive) | > 30 µM (inactive) | > 30 µM (inactive) | > 30 µM (inactive) | > 30 µM (inactive) | > 30 µM (inactive) | > 30 µM (inactive) | > 30 µM (inactive) | > 30 µM (inactive)
> 30 µM (inactive) | > 30 µM (inactive) | C=CC(=O)Nc1cccc(Nc2nc(Nc3ccc(N4CCN(C(C)=O)CC4)cc3OC)ncc2C(F)(F)F)c1 [ROCILETINIB] | > 30 µM (inactive) | > 30 µM (inactive) | > 30 µM (inactive) | > 30 µM (inactive) | > 30 µM (inactive) | 1.11 µM (active) | > 30 µM (inactive) | > 30 µM (inactive) | > 30 µM (inactive) |  | > 30 µM (inactive) | > 30 µM (inactive) | > 30 µM (inactive) | > 30 µM (inactive)
> 30 µM (inactive) | > 30 µM (inactive) | O=C(NC[C@H](O)CO)c1ccncc1Nc1ccc(I)cc1F [PIMASERTIB] | > 30 µM (inactive) | > 30 µM (inactive) | > 30 µM (inactive) | > 30 µM (inactive) | > 30 µM (inactive) | > 30 µM (inactive) | > 30 µM (inactive) | > 30 µM (inactive) | > 30 µM (inactive) | > 30 µM (inactive) | > 30 µM (inactive) |  | > 30 µM (inactive) | > 30 µM (inactive)

Compound | Kd (ADP/ATP translocase 3) | Kd [13] | Kd (Adenosine kinase) | Kd [1] | Kd [2] | Kd [3] | Kd [4] | Kd [5] | Kd [6] | Kd (LIM domain kinase 1) | Kd [7] | Kd [8] | Kd [9] | Kd [10] | Kd [11] | Kd [12]
Cc1c(NC(=O)OC[C@@H]2COCCN2)cn2ncnc(Nc3ccc4c(cnn4Cc4cccc(F)c4)c3)c12 [AC-480] | > 30 µM (inactive) |  | > 30 µM (inactive) | > 30 µM (inactive) | > 30 µM (inactive) | > 30 µM (inactive) | > 30 µM (inactive) | > 30 µM (inactive) | > 30 µM (inactive) | > 30 µM (inactive) | > 30 µM (inactive) | > 30 µM (inactive) | > 30 µM (inactive) | > 30 µM (inactive) | > 30 µM (inactive) | > 30 µM (inactive)
Cn1cc(-c2[nH]c3cc(NC(=O)[C@H](N)C4CCCCC4)cc4c3c2C=NNC4=O)cn1 | > 30 µM (inactive) | > 30 µM (inactive) | > 30 µM (inactive) | > 30 µM (inactive) | 0.006 µM (active) | > 30 µM (inactive) | > 30 µM (inactive) | > 30 µM (inactive) | 1.34 µM (active) | 0.133 µM (active) | 1.54 µM (active) | > 30 µM (inactive) | > 30 µM (inactive) | > 30 µM (inactive) | 5.2 µM | 0.386 µM (active)
NC[C@@](O)(c1ccc(Cl)cc1)c1ccc(-c2cn[nH]c2)cc1 [AT-13148] |  | > 30 µM (inactive) | > 30 µM (inactive) | > 30 µM (inactive) | > 30 µM (inactive) | > 30 µM (inactive) | > 30 µM (inactive) | > 30 µM (inactive) | > 30 µM (inactive) | > 30 µM (inactive) | > 30 µM (inactive) | > 30 µM (inactive) | > 30 µM (inactive) | > 30 µM (inactive) | > 30 µM (inactive) | > 30 µM (inactive)
COc1cc(F)c(F)c(Nc2ccc(I)cc2F)c1NS(=O)(=O)C1(C[C@H](O)CO)CC1 [REFAMETINIB] | > 30 µM (inactive) | > 30 µM (inactive) | > 30 µM (inactive) | > 30 µM (inactive) | > 30 µM (inactive) | > 30 µM (inactive) | > 30 µM (inactive) | > 30 µM (inactive) | > 30 µM (inactive) | > 30 µM (inactive) | > 30 µM (inactive) | > 30 µM (inactive) | > 30 µM (inactive) | > 30 µM (inactive) | > 30 µM (inactive) | > 30 µM (inactive)
CC1(COc2ccc3c(c2)ncn3-c2ccc3cccc(N4CCC(N)CC4)c3n2)COC1 [CRENOLANIB] | > 30 µM (inactive) | > 30 µM (inactive) | > 30 µM (inactive) | 0.029 µM | 1.2 µM (active) | > 30 µM (inactive) | 0.012 µM | > 30 µM (inactive) | > 30 µM (inactive) | > 30 µM (inactive) | 0.406 µM (active) | > 30 µM (inactive) | > 30 µM (inactive) | > 30 µM (inactive) | > 30 µM (inactive) | 0.002 µM (active)
